Where no end group is shown, it is not given here.
Key:
TGF-β mRNA = test: Angiotensin II infusion model: TGF-β mRNA levels in the aortic wall; assay type: in vivo, rat; conditions: angiotensin II-infused rats
Procedure: (§1) Rats were subjected to the model of angiotensin II infusion (Grobe et al.: Am. J. Physiol. 292: H736-42, 2007). The animals were separated randomly into the following experimental groups: controls (Sham or pseudo-operated), infused with angiotensin II (300 ng/kg min), infused with angiotensin II and angiotensin-(1-9) (300 ng/kg min and 602 ng/kg min, respectively), and then infused with angiotensin II, angiotensin-(1-9) and the angiotensin-(1-7) receptor antagonist, A779 (300 ng/kg min, 602 ng/kg min, and 100 ng/kg min, respectively). In all cases the pumps operated at a flow of 0.5 μL/h and were implanted in the right jugular vein through a catheter fitted in an intrascapular subcutaneous pocket under anesthesia with ketamine HCl/xylazine (35 and 7 mg/kg i.p., respectively), for a period of 14 days.
(§2) The procedure described by Ocaranza et al. (Hypertension 48:572-8, 2006) was followed. Briefly, total RNA was isolated from the aorta using the trizol method and quantified by spectroscopy at 260 nm/280 nm. The cDNA was obtained by reverse transcription from 1.5 μg of total RNA treated with DNAse. […] The band intensity was quantified by densitometry and normalized to the 18S ribosomal RNA band.

collagen I [1] = test: Angiotensin II infusion model: collagen I protein levels in the aortic wall by Western blot; assay type: in vivo, rat; conditions: angiotensin II-hypertensive rats
Procedure: as §1
(§3) For the determination of collagen I and TGFβ-1, 30 μg and 50 μg of total proteins were used, respectively, diluted in SDS reducing buffer (50 mM tris-HCl, pH 7.4, NP-40 10%, NaCl 1M, Na deoxycholate 5%, EDTA 10 mg/mL, SDS 10%, aprotinin 1 mg/mL, leupeptin 0.1 mg/mL, PMSF 10 mM), they were then separated by SDS-PAGE gel electrophoresis 7%, and transferred to nitrocellulose membranes of […] to 300 mA for 1 h. The transfer of proteins was monitored by Ponceau red staining. […]

TGFβ-1 = test: Goldblatt model: TGFβ-1 protein levels in the aortic wall; assay type: in vivo, rat; conditions: GB rats
Excerpt: (§4) Lewis normotensive rats (weight 150±10 g), which were separated randomly into the experimental hypertension model group or GB (Ocaranza et al. J. Hypertens. 20:413-20, 2002) or control group (S) were used. The latter corresponded to pseudo-operated animals. All animals were maintained under controlled conditions of light and darkness and had free access to food and water. Four weeks after surgery and at a blood pressure above 140 mmHg, GB rats were randomized for the chronic administration of angiotensin-(1-9) through an osmotic pump (602 ng kg^−1min^−1) via the jugular vein during two weeks. The animals were euthanized after 6 weeks post-surgery.
as §3

MCP-1 mRNA = test: Angiotensin II infusion model: MCP-1 mRNA levels in the aortic wall; assay type: in vivo, rat
Procedure: as §1, §2

ED-1 = test: Goldblatt model: ED-1 levels of the aortic wall (immunohistochemistry); assay type: in vivo, rat; conditions: GB rats
Excerpt: as §4
Immunostaining was performed using the streptavidin-biotin-peroxidase method with the inflammation marker ED-1. This is a glycoprotein expressed primarily in the lysosomal membrane of active macrophages (Leskovar et al. J. Exp. Biol. 203:1783-1795, 2000).
In order to block endogenous peroxidase, the samples were deparaffinized, rehydrated and treated with 10% H2O2 in methanol for 1 h. Then, the tissues were incubated with monoclonal antibody anti ED-1 (clone MCA341R, Serotec) diluted 1/1000 in 1% BSA prepared in PBS-0.05% Tween 20 overnight at 4° C. in a humid chamber. The sections were washed three times with 1×PBS-0.05% Tween 20, pH 7.4 for 5 min and incubated with the biotinylated secondary antibody for 30 min at room temperature. […]

collagen I [2] = test: Goldblatt model: collagen I protein levels in the aortic wall; assay type: in vivo, rat; conditions: GB rats
Excerpt: as §4, §3

[3] = system: cardiomyocyte hypertrophy induced by Ang II in vivo; test: Angiotensin II infusion model: cardiomyocyte hypertrophy (area and perimeter); set-up: species or system rat
Procedure: as §1
The middle portion of the left ventricle (LV) was dehydrated at room temperature for 24 h in Bouin and then embedded in paraffin. Sections of 10-15 μm thick were taken and stained with hematoxylin-eosin, to be examined later in a light microscope in order to observe their general morphological characteristics. Cardiomyocyte size was determined according to Nakamura et al. (Circulation, 98:794-9, 1998). Briefly, images of the cells were captured using a Nikon DS Fi1 camera and projected on a monitor using a software program. The cardiomyocyte area and perimeter were measured and recorded, using the Nis-Element program (Ocaranza et al. J. Hypertens., 28:1054-64, 2010). All measurements were performed by a blinded observer, and at least 80 images of cells per animal, which were randomly selected, were analyzed.

[4] = system: hypertensive myocardial fibrosis by pressure overload; test: Goldblatt model: volume fraction of total collagen in the ventricle (picrosirius red); assay type: in vivo, rat; conditions: GB rats
Excerpt: as §4
Sections of 5 μm of ventricle, previously included in Bouin, which were treated with picrosirius red, were used. The tissue was examined under light microscopy, images were captured with a Nikon DS Fi1 camera and projected on a monitor. The Matlab program was used to measure the interstitial collagen content according to the procedure described by Ocaranza et al. (J. Cardiovasc. Pharmacol. 40:246-54, 2002).

[5] = co-administered with angiotensin II

## DRVYIHPFH
TGF-β mRNA
  reduction of TGF-β mRNA levels: 62.5%
Collagen I [1]
  prevention of the increase of collagen in the aortic wall: 60%
TGFβ-1
  decrease of TGFβ-1 levels: 47%
MCP-1 mRNA
  MCP-1 mRNA levels: no differences
ED-1
  decrease of ED-1 levels: 82%
Collagen I [2]
  reduction of the increase of collagen in the aorta wall: 54%
[3]; [5]
  reduction in cell area as compared to the group infused with angiotensin II alone: 20%
  reduction in cell perimeter as compared to the group infused with angiotensin II alone: 11%
[3]; left ventricle, two weeks
  cardiomyocyte cell area: 227±2 μm^2
  cardiomyocyte perimeter: 59.1±0.3 μm
[4]
  decrease of VFTC as compared to untreated hypertensive rats: 41%
[4]; untreated GB 6.5±1
  volume fraction of total collagen (VFTC): 3.8%
